Measurements reported in ChEMBL document CHEMBL1157741, “Synthesis and antituberculosis activity of novel mefloquine-isoxazole carboxylic esters as prodrugs” (Bioorg Med Chem Lett, 2010).
pIC50: −log10 of the molar value. Converted amounts (≈) assume the structure as drawn.

Assays:
[1] = system: Mycobacterium tuberculosis; assay: Antitubercular activity against Mycobacterium tuberculosis H37Rv after 72 hrs by microplate alamar blue assay; format: functional
[2] = Selectivity index, ratio of IC50 for african green monkey Vero cells to MIC for Mycobacterium tuberculosis H37Rv by microplate alamar blue assay; format: functional
[3] = system: Mycobacterium tuberculosis; assay: Antitubercular activity against Mycobacterium tuberculosis H37Rv after 28 hrs by low oxygen recovery assay; format: functional
[4] = Selectivity index, ratio of IC50 for african green monkey Vero cells to MIC for Mycobacterium tuberculosis H37Rv by low oxygen recovery assay; format: functional
Vero = assay: Cytotoxicity against african green monkey Vero cells after 72 hrs; format: cell-based; conditions: Chlorocebus sabaeus
Escherichia coli = assay: Antimicrobial activity against Escherichia coli; format: functional
[5] = system: Mycobacterium tuberculosis; assay: Antitubercular activity against Mycobacterium tuberculosis Erdman infected in mouse J774A.1 cells; format: functional
[6] = system: Mycobacterium tuberculosis; assay: Antitubercular activity against Mycobacterium tuberculosis H37Rv at pH 6.8 by microplate alamar blue assay; format: functional
[7] = system: Mycobacterium tuberculosis; assay: Antimicrobial activity against Mycobacterium tuberculosis Erdman; format: functional
Candida albicans = assay: Antimicrobial activity against Candida albicans; format: functional
[8] = system: Mycobacterium tuberculosis; assay: Antitubercular activity against Mycobacterium tuberculosis H37Rv at pH 6 by microplate alamar blue assay; format: functional
[9] = Inhibition of CYP; format: ADME
Bacillus anthracis = assay: Antimicrobial activity against Bacillus anthracis; format: functional
Staphylococcus aureus = assay: Antimicrobial activity against Staphylococcus aureus; format: functional
[10] = system: Mycolicibacterium smegmatis; assay: Antimicrobial activity against Mycobacterium smegmatis; format: functional
[11] = system: Mycobacterium tuberculosis; assay: Antitubercular activity against Mycobacterium tuberculosis H37Rv at pH 6.8 by microplate alamar blue assay relative to control; format: functional
[12] = Toxicity in po dosed BALB/c mouse assessed as maximum tolerated dose treated for 5 days; format: organism-based; conditions: in vivo

CCOC(=O)c1cc(COc2ccc3ncccc3c2)on1
MIC [1]: 7.4 µM (≈ 2.21 µg/mL)
Selectivity Index [2]: >17.3
MIC [3]: 12.8 µM (≈ 3.82 µg/mL)
Selectivity Index [4]: >10
pIC50 (Vero): < 3.89

CCOC(=O)c1cc(COc2cc(C(F)(F)F)nc3c(C(F)(F)F)cccc23)on1
MIC (Escherichia coli): > 128 µM
EC90 [5]: 4.1 µM
EC99 [5]: 18.3 µM
MIC [6]: 0.9 µM (≈ 0.391 µg/mL)
MIC [1]: 0.9 µM (≈ 0.391 µg/mL)
MIC [7]: 1.74 µM (≈ 0.756 µg/mL)
Selectivity Index [2]: >142.2
MIC [3]: 12.1 µM (≈ 5.25 µg/mL)
MIC (Candida albicans): > 128 µM
Selectivity Index [4]: >10.5
MIC [8]: 0.1 µM (≈ 0.0434 µg/mL)
inhibition (INH) [9]: Not Active
MIC (Bacillus anthracis): > 128 µM
MIC (Staphylococcus aureus): > 128 µM
pIC50 (Vero): < 3.89
MIC [10]: > 128 µM

CCOC(=O)c1cc(COc2ccnc3ccccc23)on1
MIC [1]: 25.1 µM (≈ 7.49 µg/mL)
Selectivity Index [2]: >5.1
MIC [3]: 11.3 µM (≈ 3.37 µg/mL)
pIC50 (Vero): < 3.89

NNC(=O)c1cc(COc2cc(C(F)(F)F)nc3c(C(F)(F)F)cccc23)on1
MIC [1]: > 128 µM
MIC [3]: > 128 µM
pIC50 (Vero): < 3.89

CC(=O)OCc1cc(COc2cc(C(F)(F)F)nc3c(C(F)(F)F)cccc23)on1
MIC [1]: > 128 µM
MIC [3]: > 128 µM
pIC50 (Vero): < 3.89

CCc1noc(-c2cc(COc3cc(C(F)(F)F)nc4c(C(F)(F)F)cccc34)on2)n1
MIC [1]: > 128 µM
MIC [3]: > 128 µM
pIC50 (Vero): < 3.89

CCOC(=O)c1cc(COc2cc(C(F)(F)F)c3nc(C(F)(F)F)cc(OCc4cc(C(=O)OCC)no4)c3c2)on1
MIC [1]: 17.6 µM (≈ 10.6 µg/mL)
Selectivity Index [2]: >7.3
MIC [3]: 15.6 µM (≈ 9.41 µg/mL)
Selectivity Index [4]: >8.2
pIC50 (Vero): < 3.89

CCOC(=O)c1cc(COc2cccc3cccnc23)on1
MIC [1]: 39.8 µM (≈ 11.9 µg/mL)
Selectivity Index [2]: >3.2
MIC [3]: 125 µM (≈ 37.3 µg/mL)
Selectivity Index [4]: >1
pIC50 (Vero): < 3.89

O=C(c1cc(COc2cc(C(F)(F)F)nc3c(C(F)(F)F)cccc23)on1)N1CCCCO1
MIC [1]: > 128 µM
MIC [3]: > 128 µM
pIC50 (Vero): < 3.89

CCCCCCOC(=O)c1cc(COc2cc(C(F)(F)F)nc3c(C(F)(F)F)cccc23)on1
MIC [1]: 15.3 µM (≈ 7.5 µg/mL)
Selectivity Index [2]: >8.4
MIC [3]: 26.7 µM (≈ 13.1 µg/mL)
Selectivity Index [4]: >4.8
pIC50 (Vero): < 3.89

O=C(OCc1ccccc1)c1cc(COc2cc(C(F)(F)F)nc3c(C(F)(F)F)cccc23)on1
MIC [1]: 26.5 µM (≈ 13.2 µg/mL)
Selectivity Index [2]: >4.8
MIC [3]: 50.7 µM (≈ 25.2 µg/mL)
Selectivity Index [4]: >2.5
pIC50 (Vero): < 3.89

O=C(OCCC(F)(F)F)c1cc(COc2cc(C(F)(F)F)nc3c(C(F)(F)F)cccc23)on1
MIC [1]: 25 µM (≈ 12.6 µg/mL)
Selectivity Index [2]: >5.1
MIC [3]: 29.9 µM (≈ 15 µg/mL)
Selectivity Index [4]: >4.3
pIC50 (Vero): < 3.89

CCCCOC(=O)c1cc(COc2cc(C(F)(F)F)nc3c(C(F)(F)F)cccc23)on1
MIC [1]: 0.9 µM (≈ 0.416 µg/mL)
Selectivity Index [2]: >109.1
MIC [3]: 9.9 µM (≈ 4.58 µg/mL)
Selectivity Index [4]: >10.6
pIC50 (Vero): 3.98

CCCOC(=O)c1cc(COc2cc(C(F)(F)F)nc3c(C(F)(F)F)cccc23)on1
MIC [1]: 1.8 µM (≈ 0.807 µg/mL)
Selectivity Index [2]: >71.2
MIC [3]: 26.1 µM (≈ 11.7 µg/mL)
Selectivity Index [4]: >4.9
pIC50 (Vero): < 3.89

CCOC(=O)c1cc(COc2ccc3ccc(C(F)(F)F)nc3c2)on1
MIC [1]: 3.6 µM (≈ 1.32 µg/mL)
Selectivity Index [2]: >25.6
MIC [3]: 21.6 µM (≈ 7.91 µg/mL)
Selectivity Index [4]: >5.9
pIC50 (Vero): < 3.89

CCOC(=O)c1cc(COc2ccc3cccnc3c2)on1
MIC [1]: 10.8 µM (≈ 3.22 µg/mL)
Selectivity Index [2]: >9.9
MIC [3]: 40.3 µM (≈ 12 µg/mL)
Selectivity Index [4]: >2.7
pIC50 (Vero): 3.97

CCOC(=O)c1cc(COc2cccc3ncccc23)on1
MIC [1]: 35.1 µM (≈ 10.5 µg/mL)
Selectivity Index [2]: >3.6
MIC [3]: 31.1 µM (≈ 9.28 µg/mL)
Selectivity Index [4]: >4.1
pIC50 (Vero): < 3.89

CCOC(=O)c1cc(COc2ccc3cc[nH]c3c2)on1
MIC [1]: 8.6 µM (≈ 2.46 µg/mL)
Selectivity Index [2]: >14.9
MIC [3]: 42.9 µM (≈ 12.3 µg/mL)
Selectivity Index [4]: >2.9
pIC50 (Vero): < 3.89

NC(=O)c1cc(COc2cc(C(F)(F)F)nc3c(C(F)(F)F)cccc23)on1
MIC [1]: > 128 µM
MIC [3]: > 128 µM
pIC50 (Vero): < 3.89

CCN(CC)C(=O)c1cc(COc2cc(C(F)(F)F)nc3c(C(F)(F)F)cccc23)on1
MIC [1]: > 128 µM
MIC [3]: > 128 µM
pIC50 (Vero): 4.33

O=C(O)c1cc(COc2cc(C(F)(F)F)nc3c(C(F)(F)F)cccc23)on1
MIC (Escherichia coli): > 128 µM
MIC [6]: > 128 µM
MIC [7]: > 128 µM
MIC (Candida albicans): > 128 µM
Activity [11]: 89%
MIC [8]: 7.7 µM (≈ 3.13 µg/mL)
MIC (Bacillus anthracis): 32 µM (≈ 13 µg/mL)
MIC (Staphylococcus aureus): 22 µM (≈ 8.94 µg/mL)
MTD at 120 h [12]: 400 mg/kg
MIC [10]: > 128 µM

OCc1cc(COc2cc(C(F)(F)F)nc3c(C(F)(F)F)cccc23)on1
MIC [1]: > 128 µM
MIC [3]: > 128 µM
pIC50 (Vero): < 3.89

CCOC(=O)c1cc(COc2ccc3ccccc3n2)on1
MIC [1]: 103 µM (≈ 30.8 µg/mL)
Selectivity Index [2]: >1.2
MIC [3]: 64 µM (≈ 19.1 µg/mL)
Selectivity Index [4]: >2
pIC50 (Vero): < 3.89

CCOC(=O)c1cc(COc2ccc([N+](=O)[O-])c(C(F)(F)F)c2)on1
MIC [1]: 3.5 µM (≈ 1.26 µg/mL)
Selectivity Index [2]: >36.6
MIC [3]: 62.2 µM (≈ 22.4 µg/mL)
Selectivity Index [4]: >2.1
pIC50 (Vero): < 3.89

NNC(=O)c1ccncc1 [ISONIAZID]
MIC [6]: 0.1 µM (≈ 0.0137 µg/mL)
MIC [8]: 0.1 µM (≈ 0.0137 µg/mL)

OC(c1cc(C(F)(F)F)nc2c(C(F)(F)F)cccc12)C1CCCCN1 (configuration not stated) [MEFLOQUINE]
MIC [1]: 13 µM (≈ 4.92 µg/mL)
Selectivity Index [2]: 0.9
MIC [3]: 7 µM (≈ 2.65 µg/mL)
Selectivity Index [4]: 1.6

NC(=O)c1cnccn1 [PYRAZINAMIDE]
MIC [6]: > 4000 µM
MIC [8]: 829 µM (≈ 102 µg/mL)

CO[C@H]1/C=C/O[C@@]2(C)Oc3c(C)c(O)c4c(O)c(c(/C=N/N5CCN(C)CC5)c(O)c4c3C2=O)NC(=O)/C(C)=C\C=C\[C@H](C)[C@H](O)[C@@H](C)[C@@H](O)[C@@H](C)[C@H](OC(C)=O)[C@@H]1C [RIFAMPIN]
MIC [6]: 0.1 µM (≈ 0.0823 µg/mL)
MIC [1]: 0.1 µM (≈ 0.0823 µg/mL)
MIC [3]: 2 µM (≈ 1.65 µg/mL)
